In patent US20070128217A1 (priority 2003, published 2007):

What was measured:
[1] = tested on: control sera (pooled serum of ten healthy LUMC hospital workers; commercial negative donor pooled serum from the Dutch bloodbank); assay type: binding, human; set-up: Binding of Control serum LUMC to linear peptides / Binding of Control serum Blood-bank to linear peptides / Binding of Control serum LUMC to looped peptides / Binding of Control Serum Blood-Bank to Looped peptides / Binding of Control serum LUMC to linear peptides of the protein M of SARS-CoV Urbani / Binding of Control serum Blood-bank to linear peptides of the protein M of SARS-CoV Urbani / Binding of Control serum LUMC to looped peptides of the protein M of SARS-CoV Urbani / Binding of Control Serum Blood-Bank to Looped peptides of the protein M of SARS-CoV Urbani: unit not given here
[2] = tested on: rabbit serum obtained by immunizing a rabbit with the SARS-CoV strain Frankfurt 1; assay type: binding; set-up: Binding of a rabbit serum to linear peptides / Binding of a rabbit serum to looped peptides / Rabbit serum linear peptides / Rabbit serum looped peptides / Binding of a rabbit serum to linear peptides of protein N of SARS-CoV Urbani (Rabbit serum linear peptides) / Binding of a rabbit serum to looped/cyclic peptides of protein N of SARS-CoV Urbani (Rabbit serum looped peptides): unit not given here
[3] = tested on: antibodies in sera from SARS patients (sera 1a, 1b, 2, 6, 37, 62, London, SARS-yellow, SARS-green); assay type: binding, human; set-up: Binding of serum 6 to linear peptides of protein X1 of SARS-CoV Urbani / Binding of serum 37 to linear peptides of protein X1 of SARS-CoV Urbani / Binding of serum 6 to looped/cyclic peptide (PEPSCAN-ELISA) / Binding of serum 37 to looped/cyclic peptide (PEPSCAN-ELISA) / Binding of serum 37 to looped/cyclic peptides of protein X1 of SARS-CoV Urbani / Binding of serum 6 to linear peptides of protein X2 / Binding of serum 37 to linear peptides of protein X2 / Binding of serum 37 to looped/cyclic peptides of protein X2 of SARS-CoV Urbani / Binding of serum 6 to linear peptides of protein M of SARS-CoV Urbani / Binding of serum 37 to linear peptides of protein M of SARS-CoV Urbani / Binding of serum 6 to looped/cyclic peptides of protein M of SARS-CoV Urbani / Binding of serum 37 to looped/cyclic peptides of protein M of SARS-CoV Urbani / Binding of serum 6 to linear peptides of protein X3 of SARS-CoV Urbani / Binding of serum 37 to linear peptides of protein X3 of SARS-CoV Urbani / Binding of serum 37 to looped/cyclic peptides of protein X3 of SARS-CoV Urbani / Binding of serum 6 to linear peptides of protein X4 of SARS-CoV Urbani / Binding of serum 37 to linear peptides of protein X4 of SARS-CoV Urbani / Binding of serum 37 to looped/cyclic peptides of protein X4 of SARS-CoV Urbani / Binding of serum 6 to linear peptides of protein X5 of SARS-CoV Urbani / Binding of serum 37 to linear peptides of protein X5 of SARS-CoV Urbani / Binding of serum 37 to looped/cyclic peptides of protein X5 of SARS-CoV Urbani / Binding of serum 6 to linear peptides of protein N of SARS-CoV Urbani / Binding of serum 37 to linear peptides of protein N of SARS-CoV Urbani / Binding of serum 6 to linear peptide (PEPSCAN-ELISA) / Binding of serum 1a to looped/cyclic peptides of protein N of SARS-CoV Urbani / Binding of serum 1b to looped/cyclic peptides of protein N of SARS-CoV Urbani / Binding of serum 2 to looped/cyclic peptides of protein N of SARS-CoV Urbani / Binding of serum 6 to looped/cyclic peptides of protein N of SARS-CoV Urbani / Binding of serum 37 to looped/cyclic peptides of protein N of SARS-CoV Urbani / Binding of serum 62 to looped/cyclic peptides of protein N of SARS-CoV Urbani / Binding of serum London to looped/cyclic peptides of protein N of SARS-CoV Urbani / Binding of serum SARS-green to looped/cyclic peptides of protein N of SARS-CoV Urbani: unit not given here

Sequence: QRVGTDSGFAAYNRY
- Binding of Control Serum Blood-Bank to Looped peptides of the protein M of SARS-CoV Urbani [1]: 0.7
- Binding of Control serum Blood-bank to linear peptides of the protein M of SARS-CoV Urbani [1]: 0.6
- Binding of Control serum LUMC to linear peptides of the protein M of SARS-CoV Urbani [1]: 0.3
- Binding of Control serum LUMC to looped peptides of the protein M of SARS-CoV Urbani [1]: 0.8
- Rabbit serum linear peptides [2]: 0.4
- Rabbit serum looped peptides [2]: 0.0
- Binding of serum 1a to linear peptides of protein M of SARS-CoV Urbani [3]: 0.7
- Binding of serum 1a to looped/cyclic peptides of protein M of SARS-CoV Urbani [3]: 0.6
- Binding of serum 1b to linear peptides of protein M of SARS-CoV Urbani [3]: 0.5
- Binding of serum 1b to looped/cyclic peptides of protein M of SARS-CoV Urbani [3]: 0.5
- Binding of serum 2 to linear peptides of protein M of SARS-CoV Urbani [3]: 0.5
- Binding of serum 2 to looped/cyclic peptides of protein M of SARS-CoV Urbani [3]: 0.5
- Binding of serum 6 to linear peptides of protein M of SARS-CoV Urbani [3]: 0.3
- Binding of serum 6 to looped/cyclic peptides of protein M of SARS-CoV Urbani [3]: 0.6
- Binding of serum 37 to linear peptides of protein M of SARS-CoV Urbani [3]: 0.7
- Binding of serum 37 to looped/cyclic peptides of protein M of SARS-CoV Urbani [3]: 0.6
- Binding of serum 62 to linear peptides of protein M of SARS-CoV Urbani [3]: 0.7
- Binding of serum 62 to looped/cyclic peptides of protein M of SARS-CoV Urbani [3]: 0.5
- Binding of serum London to linear peptides of protein M of SARS-CoV Urbani [3]: 0.3
- Binding of serum London to looped/cyclic peptides of protein M of SARS-CoV Urbani [3]: 0.2
- Binding of serum SARS-green to linear peptides of protein M of SARS-CoV Urbani [3]: 0.3
- Binding of serum SARS-green to looped/cyclic peptides of protein M of SARS-CoV Urbani [3]: 0.3
- Binding of serum SARS-yellow to linear peptides of protein M of SARS-CoV Urbani [3]: 0.1
- Binding of serum SARS-yellow to looped/cyclic peptides of protein M of SARS-CoV Urbani [3]: 0.6

Sequence: ARTRSMWSFNPETNI
- Binding of Control Serum Blood-Bank to Looped peptides of the protein M of SARS-CoV Urbani [1]: 0.6
- Binding of Control serum Blood-bank to linear peptides of the protein M of SARS-CoV Urbani [1]: 0.7
- Binding of Control serum LUMC to linear peptides of the protein M of SARS-CoV Urbani [1]: 0.9
- Binding of Control serum LUMC to looped peptides of the protein M of SARS-CoV Urbani [1]: 0.7
- Rabbit serum linear peptides [2]: 0.2
- Rabbit serum looped peptides [2]: 0.3
- Binding of serum 1a to linear peptides of protein M of SARS-CoV Urbani [3]: 0.9
- Binding of serum 1a to looped/cyclic peptides of protein M of SARS-CoV Urbani [3]: 0.7
- Binding of serum 1b to linear peptides of protein M of SARS-CoV Urbani [3]: 0.8
- Binding of serum 1b to looped/cyclic peptides of protein M of SARS-CoV Urbani [3]: 0.1
- Binding of serum 2 to linear peptides of protein M of SARS-CoV Urbani [3]: 0.6
- Binding of serum 2 to looped/cyclic peptides of protein M of SARS-CoV Urbani [3]: 0.9
- Binding of serum 6 to linear peptides of protein M of SARS-CoV Urbani [3]: 0.7
- Binding of serum 6 to looped/cyclic peptides of protein M of SARS-CoV Urbani [3]: 0.6
- Binding of serum 37 to linear peptides of protein M of SARS-CoV Urbani [3]: 0.6
- Binding of serum 37 to looped/cyclic peptides of protein M of SARS-CoV Urbani [3]: 0.8
- Binding of serum 62 to linear peptides of protein M of SARS-CoV Urbani [3]: 0.5
- Binding of serum 62 to looped/cyclic peptides of protein M of SARS-CoV Urbani [3]: 0.8
- Binding of serum London to linear peptides of protein M of SARS-CoV Urbani [3]: 0.4
- Binding of serum London to looped/cyclic peptides of protein M of SARS-CoV Urbani [3]: 0.2
- Binding of serum SARS-green to linear peptides of protein M of SARS-CoV Urbani [3]: 0.7
- Binding of serum SARS-green to looped/cyclic peptides of protein M of SARS-CoV Urbani [3]: 0.1
- Binding of serum SARS-yellow to linear peptides of protein M of SARS-CoV Urbani [3]: 0.3
- Binding of serum SARS-yellow to looped/cyclic peptides of protein M of SARS-CoV Urbani [3]: 0.7

Sequence: VHGYFTEVYYQLEST
- Binding of Control Serum Blood-Bank to Looped peptides [1]: 0.5
- Binding of Control serum Blood-bank to linear peptides [1]: 0.4
- Binding of Control serum LUMC to linear peptides [1]: 0.5
- Binding of Control serum LUMC to looped peptides [1]: 0.7
- Binding of a rabbit serum to linear peptides [2]: 0.1
- Binding of a rabbit serum to looped peptides [2]: 0.6
- Binding of serum 1a to linear peptides of protein X1 of SARS-CoV Urbani [3]: 0.7
- Binding of serum 1a to looped/cyclic peptides of protein X1 of SARS-CoV Urbani [3]: 0.5
- Binding of serum 1b to linear peptides of protein X1 of SARS-CoV Urbani [3]: 0.5
- Binding of serum 1b to looped/cyclic peptides of protein X1 of SARS-CoV Urbani [3]: 0.4
- Binding of serum 2 to linear peptides of protein X1 of SARS-CoV Urbani [3]: 0.4
- Binding of serum 2 to looped/cyclic peptides of protein X1 of SARS-CoV Urbani [3]: 0.5
- Binding of serum 6 to linear peptides of protein X1 of SARS-CoV Urbani [3]: 0.4
- Binding of serum 6 to looped/cyclic peptides of protein X1 of SARS-CoV Urbani [3]: 0.3
- Binding of serum 37 to linear peptides of protein X1 of SARS-CoV Urbani [3]: 0.4
- Binding of serum 37 to looped/cyclic peptides of protein X1 of SARS-CoV Urbani [3]: 0.5
- Binding of serum 62 to linear peptides of protein X1 of SARS-CoV Urbani [3]: 0.3
- Binding of serum 62 to looped/cyclic peptides of protein X1 of SARS-CoV Urbani [3]: 0.6
- Binding of serum London to linear peptides of protein X1 of SARS-CoV Urbani [3]: 0.2
- Binding of serum London to looped/cyclic peptides of protein X1 of SARS-CoV Urbani [3]: 0.2
- Binding of serum SARS-green to linear peptides of protein X1 of SARS-CoV Urbani [3]: 0.1
- Binding of serum SARS-green to looped/cyclic peptides of protein X1 of SARS-CoV Urbani [3]: 0.3
- Binding of serum SARS-yellow to linear peptides of protein X1 of SARS-CoV Urbani [3]: 0.3
- Binding of serum SARS-yellow to looped/cyclic peptides of protein X1 of SARS-CoV Urbani [3]: 0.5
